Data: patent US20220233555A1, “Improved administration of glycylcyclines by inhalation” (Stichting Radboud universitair medisch centrum, priority 2019, published 2022)

How the values were obtained:
[1] = in vivo; cited from earlier work
[2] = in vivo, cited from earlier work
[3] = rat, in vivo; cited from earlier work
M. abscessus [4] = conditions: cited from earlier work
[5] = system: M. abscessus and M. chelonae infections; conditions: cited from earlier work
[6] = cited from earlier work
M. abscessus [7] = test: Intrapulmonary aerosol M. abscessus infection in GM-CSF KO mice, lung CFU determination; assay type: in vivo, Mycobacterium abscessus; conditions: for Log10 CFU count After 4 weeks: GM-CSF KO mice, lungs, 5 days a week for 4 weeks, at start 4.80, untreated 3.93

In the case of CN(C)c1cc(NC(=O)CNC(C)(C)C)c(O)c2c1C[C@H]1C[C@H]3[C@H](N(C)C)C(O)=C(C(N)=O)C(=O)[C@@]3(O)C(O)=C1C2=O [tigecycline], the “dose at which gastrointestinal adverse events were dose limiting” value [1] is listed as 300 mg, the “nausea, share of tigecycline recipients” value [1] is listed as 48.5% and the “vomiting, share of tigecycline recipients” value [1] is listed as 29.4%. The half-life ([2]; human) was 36 h, the “excreted unchanged in the urine” value [2] was “not more than 15%” and the volume of distribution [2] was > 10 L/kg. For the same compound, the penetration into tissues [3] was “good penetration into tissues”, the “log kill of M. abscessus” value (M. abscessus [4]; at 200 mg/day, short-term inhibitory effect) was 1 log kill and the maximum microbial kill (M. abscessus [4]; at higher doses) was 1.37 log10 CFU/mL. The “cases with adverse events reported” value ([5]; human, in vivo, iv) was “about 90%”, the “patients with serious adverse events” value ([5]; human, in vivo, iv) was 29 out of 52 and the “patients who stopped tigecycline therapy early because of adverse events” value ([5]; human, in vivo) was 27%. The patients with improvement ([5]; intravenous 100 mg then 50 mg every 12 h, part of a multidrug regimen) was “about 60%”, the Protein binding [6] was “approximately 68%” and the “bacterial colonies after culturing lung tissue” value (M. abscessus [7]; 2.5 mg cohorts, 9 out of 10 mice, 4 weeks) was “no bacterial colonies were visible”. The “log 10 CFU count of the mouse with incomplete response” value (M. abscessus [7]; 2.5 mg cohorts, one mouse with abscess formation, 4 weeks) was 0.5 log 10 CFU, the “Log10 CFU count After 4 weeks” value (M. abscessus [7]; inhaled 0.25 mg/dose) was 3.28 Log10 CFU and the “Log10 CFU count After 4 weeks” value (M. abscessus [7]; inhaled 1.25 mg/dose) was 0.695 Log10 CFU. The “Log10 CFU count After 4 weeks” value (M. abscessus [7]; inhaled 2.5 mg/dose) was 0.50 Log10 CFU.
